Molecular target: Tyrosine-protein kinase SYK (Homo sapiens, UniProt P43405)
Experiment: Binding affinity to Syk tSH2 domain by SPR binding assay

- Kd: 65 nM
SMILES: CC(=O)N[C@@H](Cc1ccc(OP(=O)(O)O)cc1)C(=O)N[C@H](C(=O)NCC(=O)N[C@@H](CC(C)C)C(=O)NCC(=O)NCc1ccc(/N=N/c2ccc(C(=O)NCC(=O)N[C@@H](Cc3ccc(OP(=O)(O)O)cc3)C(=O)N[C@@H](CCC(=O)O)C(=O)N[C@H](C(=O)N[C@@H](CC(C)C)C(N)=O)[C@H](C)O)cc2)cc1)[C@H](C)O
